Values quoted from earlier work as cited in patent publication US20220184007A1, “FORMULATIONS” (Synchroneuron Inc., priority 2019, published 2022).

Tests used:
[1] = system: psychogenic nonepileptic seizures; conditions: flexible-dose, open-label, uncontrolled study
[2] = system: psychogenic nonepileptic seizures; conditions: flexible-dose, 12 weeks, 33 subjects, statistically underpowered

Row | Structure (SMILES) | event reduction [1] | biweekly event frequency change [2]
1 | COc1ccc(C(CN(C)C)C2(O)CCCCC2)cc1 (centres unmarked) [venlafaxine] | significant event reduction | 
2 | CN[C@H]1CC[C@@H](c2ccc(Cl)c(Cl)c2)c2ccccc21 [sertraline] |  | no difference between groups
